Laboratory results published in US8637665B2, “Pyrrolo[2,L-C][L,4]benzodiazepine-benzothiazole or benzoxazole conjugates linked through piperazine moiety and process for the preparation thereof” (priority 2010, dated 2014).
Where two headings read alike, the source gives them in different places.

Experiments:
[1] = test system: duplex-form calf thymus DNA (CT-DNA); assay: Thermal denaturation studies with calf thymus DNA (DNA binding affinity); conditions: [PBD]:[DNA] 1:5, CT-DNA 100 μM, ligand 20 μM, pH 7.00
Method: Compounds have been subjected to thermal denaturation studies with duplex-form calf thymus DNA (CT-DNA) using an modification of a reported procedure (Newman, M. S. Carcinog-compr. Surv. 1976,1, 203; (b) Hecht, S. S.; Loy, M.; Hoffman, Carcinog-compr. Surv. 1976, 1, 325). Working solutions in aqueous buffer (10 mM NaH2PO4/Na2HPO4, 1 mM Na2EDTA, pH 7.00+0.01) containing CT-DNA (100 μm in phosphate) and the PBD (20 μm) have been prepared by addition of concentrated PBD solutions in DMSO to obtain a fixed [PBD]/[DNA] molar ratio of 1:5. The DNA-PBD solutions have been incubated at 37° C. for 0 and 18 h prior to analysis. Samples have been monitored at 260 using a Beckman DU-800 spectrophotometer fitted with high performance temperature controller, and heated at 1° C. min^−1 in the 40-110° C. range. DNA helix→coil transition temperatures (Tm) have been obtained from the maxima in the d(A260)/dT derivative plots. Drug-induced alterations in DNA melting behavior are given by: ΔTm=Tm(DNA+PBD)−Tm(DNA alone), where the Tm value for the PBD-free CT-DNA is 69.1±0.01.
The DNA binding activity for these novel C8-linked benzothiazole, benzoxazole-PBD hybrids has been examined by thermal denaturation studies using calf thymus (CT) DNA. […] The data for the compounds 9a-n is included in Table 7 for comparison.

[2] = test system: duplex-form calf thymus DNA (CT-DNA); conditions: comparative data, hybrids without piperazine, cited from earlier work
[3] = test system: MCF 7 (breast cancer) cell line; assay: cells; assay type: cell-based; conditions: for GI50: read-out: GI50 MCF 7; for LC50 (concentration causing 50% cell death): read-out: LC50 MCF 7, 50% cell death
Method: (§1) Anticancer activity: In vitro biological activity studies were carried out at the Advance Center for Treatment Research & Education in Cancer (ACTREC), Navi Mumbai.
(§2) The compounds were evaluated for in vitro anticancer activity against eight tumour cells lines derived from seven cancer types (non-small-cell lung, colon, oral, cervix, ovarian, prostate, and breast cancer) as shown in Table 2. For each compound, dose response curves for each cell line were measured at a minimum of five concentrations at 10 fold dilutions. A protocol of 48 h continuous drug exposure was used and a sulforhodamine B (SRB) protein assay was used to estimate cell viability or growth. The concentration causing 50% cell growth inhibition (GI50) and 50% cell death (LC50, −50% growth) compared with the control was calculated. Compounds 9a-9l have been evaluated for their in vitro cytotoxicity in eight cell lines from seven human cancer types of lung (Hop-62, A-549) colon (COLO-205) cervix (Si—Ha), ovary (A-2780), prostate (PC3) breast (MCF7), oral (KB). The results are expressed as percent of cell growth determined relative to that of untreated control cells (Table-8 and table-9).

[4] = test system: PC 3 (prostate cancer) cell line; assay: cells; assay type: cell-based; conditions: for GI50: read-out: GI50 PC 3
Method: as §1, §2

[5] = test system: HOP 62 (lung cancer) cell line; assay: cells; assay type: cell-based; conditions: for GI50: mean of three determinations; for LC50: read-out: LC50 HOP 62, 50% cell death
Method: as §1, §2

[6] = test system: A 2780 (ovary cancer) cell line; assay: cells; assay type: cell-based; conditions: for GI50: mean of three determinations
Method: as §1, §2

[7] = test system: Colo 205 (colon cancer) cell line; assay: cells; assay type: cell-based; conditions: for GI50: mean of three determinations
Method: as §1, §2

[8] = test system: SiHa (cervix cancer) cell line; assay: cells; assay type: cell-based; conditions: for GI50: mean of three determinations; for LC50 (concentration causing 50% cell death): read-out: LC50 SiHa, 50% cell death
Method: as §1, §2

[9] = test system: A 549 (lung cancer) cell line; assay: cells; assay type: cell-based; conditions: for GI50: mean of three determinations
Method: as §1, §2

[10] = test system: KB (oral cancer) cell line; assay: In vitro anticancer activity, SRB assay, KB; assay type: cell-based, human; conditions: for GI50: mean of three determinations; for CC50: read-out: LC50 KB, 50% cell death
Method: as §1, §2

[11] = test system: eight tumour cells lines derived from seven cancer types; assay: In vitro anticancer activity, SRB assay, panel of eight cell lines; assay type: cell-based; conditions: Homo sapiens, range over the eight cell lines per compound; read-out: GI50 range against cancer cell lines
Method: as §1, §2

[12] = Homo sapiens, A2780, 48 h, read-out: GI50 A 2780, 48 h drug exposure, SRB
[13] = Homo sapiens, SiHa, 48 h, read-out: GI50 SiHa, 48 h drug exposure, SRB
[14] = 48 h drug exposure, SRB, read-out: GI50 KB
[15] = Homo sapiens, MCF7, 48 h, 48 h drug exposure, SRB
[16] = Homo sapiens, 48 h, read-out: LC50 Pc 3, 50% cell death, 48 h drug exposure, SRB
[17] = Homo sapiens, HOP-62, 48 h, read-out: GI50 HOP 62, 48 h drug exposure, SRB
[18] = Homo sapiens, HOP-62, 48 h, 48 h drug exposure, SRB
[19] = Homo sapiens, A2780, 48 h, read-out: LC50 A 2780, 50% cell death, 48 h drug exposure, SRB
[20] = Homo sapiens, COLO 205, 48 h, read-out: GI50 Colo 205, 48 h drug exposure, SRB
[21] = Homo sapiens, COLO 205, 48 h, read-out: LC50 Colo 205
[22] = Homo sapiens, SiHa, 48 h, 48 h drug exposure, SRB
[23] = Homo sapiens, A549, 48 h, read-out: GI50 A 549, 48 h drug exposure, SRB
[24] = Homo sapiens, A549, 48 h, read-out: LC50 A 549, 50% cell death, 48 h drug exposure, SRB
[25] = Homo sapiens, 48 h, read-out: GI50 KB, 48 h drug exposure, SRB
[26] = Homo sapiens, 48 h, 48 h drug exposure, SRB

COc1cc(-c2nc3ccccc3s2)ccc1OCCCCN1CCN(CCCCOc2cc3c(cc2OC)C(=O)N2CCC[C@H]2C=N3)CC1 [Compound 9m, 7-Methoxy-8-[4-(4-{4-[4(1,3-benzothiazol-2-yl)-2-methoxyphenoxy]butyl}piperazin-1-yl)butyl]oxy-(11aS)-1,2,3,11a-tetrahydro-5H-pyrrolo[2,1-c][1,4]benzodiazepin-5-one]
ΔTm after incubation at 37° C. for 0 h [1]: 12.1 °C | ΔTm after incubation at 37° C. for 18 h [1]: 12.5 °C

COc1cc2c(cc1OCCCCCOc1ccc(-c3nc4ccccc4o3)cc1)N=C[C@@H]1CCCN1C2=O [Compound 30a]
ΔTm after incubation at 37° C. for 0 h (PBD hybrids with out piperizine) [2]: 4.1 °C | ΔTm after incubation at 37° C. for 18 h (PBD hybrids with out piperizine) [2]: 4.3 °C

COc1cc2c(cc1OCCCCN1CCN(CCCCOc3ccc(-c4nc5ccccc5s4)cc3)CC1)N=C[C@@H]1CCCN1C2=O [Compound 9e, 7-Methoxy-8-[4-(4-{4-[4(1,3-benzothiazol-2-yl)-phenoxy]butyl}piperazin-1-yl)butyl]oxy-(11aS)-1,2,3,11a-tetrahydro-5H-pyrrolo[2,1-c][1,4]benzodiazepin-5-one]
ΔTm after incubation at 37° C. for 0 h [1]: 12.2 °C | ΔTm after incubation at 37° C. for 18 h [1]: 12.6 °C | GI50 ([3]; Homo sapiens, MCF7, 48 h): < 10 nM | CC50 ([3]; human, 48 h): 150 nM | GI50 ([4]; Homo sapiens, 48 h): < 10 nM | CC50 ([4]; human, 48 h): 2500 nM | CC50 ([5]; human, 48 h): 27 µM | GI50 ([5]; read-out: GI50 HOP 62, 48 h drug exposure, SRB): < 10 nM | GI50 [6, 12]: 97 nM | CC50 ([6]; human, 48 h): 2200 nM | CC50 ([7]; human, 48 h): > 100 µM | GI50 ([7]; read-out: GI50 Colo 205, 48 h drug exposure, SRB): 120 nM | GI50 [8, 13]: 107 nM | CC50 ([8]; human, 48 h): 27.8 µM | CC50 ([9]; human, 48 h): > 100 µM | GI50 ([9]; read-out: GI50 A 549, 48 h drug exposure, SRB): 105 nM | LC50 KB ([10]; 50% cell death, 48 h drug exposure, SRB): 2.3 µM | GI50 [10, 14]: <10 nM

COc1cc(-c2nc3ccccc3s2)ccc1OCCCN1CCN(CCCOc2cc3c(cc2OC)C(=O)N2CCC[C@H]2C=N3)CC1 [Compound 9b]
ΔTm after incubation at 37° C. for 0 h [1]: 12.1 °C | ΔTm after incubation at 37° C. for 18 h [1]: 12.7 °C | GI50 ([3]; Homo sapiens, MCF7, 48 h): < 10 nM | LC50 (concentration causing 50% cell death) [3, 15]: < 10 nM | GI50 ([4]; Homo sapiens, 48 h): < 10 nM | CC50 [4, 16]: 2400 nM | GI50 [5, 17]: < 10 nM | LC50 [5, 18]: 28 µM | GI50 [6, 12]: < 10 nM | CC50 [6, 19]: 120 nM | GI50 [7, 20]: 90 nM | CC50 [7, 21]: > 100 µM | GI50 [8, 13]: < 10 nM | LC50 (concentration causing 50% cell death) [8, 22]: 2.4 µM | GI50 [9, 23]: 120 nM | CC50 [9, 24]: > 100 µM | GI50 [10, 25]: < 10 nM | CC50 [10, 26]: 2200 nM | GI50 [11]: ≤ 120 nM

COc1cc2c(cc1OCCCCN1CCN(CCCCOc3cccc(-c4nc5ccccc5s4)c3)CC1)N=C[C@@H]1CCCN1C2=O [Compound 9n, 7-Methoxy-8-[4-(4-{4-[3(1,3-benzothiazol-2-yl)-phenoxy]butyl}piperazin-1-yl)butyl]oxy-(11aS)-1,2,3,11a-tetrahydro-5H-pyrrolo[2,1-c][1,4]benzodiazepin-5-one]
ΔTm after incubation at 37° C. for 0 h [1]: 10.3 °C | ΔTm after incubation at 37° C. for 18 h [1]: 10.6 °C

COc1cc2c(cc1OCCCCN1CCN(CCCCOc3cccc(-c4nc5ccccc5s4)c3)CC1)N=C[C@@H]1CCCN1C2=O [Compound 9h, 7-Methoxy-8-[4-(4-{4-[3(1,3-benzothiazol-2-yl)-phenoxy]butyl}piperazin-1-yl)butyl]oxy-(11aS)-1,2,3,11a-tetrahydro-5H-pyrrolo[2,1-c][1,4]benzodiazepin-5-one]
ΔTm after incubation at 37° C. for 0 h [1]: 11.9 °C | ΔTm after incubation at 37° C. for 18 h [1]: 12.3 °C | GI50 ([3]; Homo sapiens, MCF7, 48 h): 120 nM | LC50 (concentration causing 50% cell death) [3, 15]: 2200 nM | GI50 ([4]; Homo sapiens, 48 h): 140 nM | CC50 [4, 16]: 2400 nM | GI50 [5, 17]: 100 nM | LC50 [5, 18]: 27 µM | GI50 [6, 12]: 109 nM | CC50 [6, 19]: 2300 nM | GI50 [7, 20]: 160 nM | CC50 [7, 21]: > 100 µM | GI50 [8, 13]: 130 nM | LC50 (concentration causing 50% cell death) [8, 22]: 27 µM | GI50 [9, 23]: 120 nM | CC50 [9, 24]: > 100 µM | GI50 [10, 25]: 120 nM | CC50 [10, 26]: 200 nM

COc1cc2c(cc1O)N=CC1CCCN1C2=O (stereo not shown) [DC-81, reference compound]
ΔTm after incubation at 37° C. for 0 h [1]: 0.3 °C | ΔTm after incubation at 37° C. for 18 h [1]: 0.7 °C | GI50 ([3]; 48 h drug exposure, SRB, mean of three determinations): 160 nM | GI50 ([5]; 48 h drug exposure, SRB, read-out: GI50 HOP 62): 110 nM | GI50 ([6]; 48 h drug exposure, SRB, read-out: GI50 A 2780): 130 nM | GI50 ([7]; 48 h drug exposure, SRB, read-out: GI50 Colo 205): 100 nM | GI50 ([8]; 48 h drug exposure, SRB, read-out: GI50 SiHa): 160 nM | GI50 [10, 14]: 170 nM

COc1cc(-c2nc3ccccc3o2)ccc1OCCCCCOc1cc2c(cc1OC)C(=O)N1CCC[C@H]1C=N2 [Compound 30b]
ΔTm after incubation at 37° C. for 0 h (PBD hybrids with out piperizine) [2]: 4.2 °C | ΔTm after incubation at 37° C. for 18 h (PBD hybrids with out piperizine) [2]: 4.3 °C

COc1cccc2c1C(=O)c1c(O)c3c(c(O)c1C2=O)C[C@@](O)(C(=O)CO)C[C@@H]3O[C@H]1C[C@H](N)[C@H](O)[C@H](C)O1 [ADR, adriamycin, reference compound]
GI50 ([3]; Homo sapiens, MCF7, 48 h drug exposure, SRB, mean of three determinations): < 10 nM | GI50 ([4]; Homo sapiens, 48 h drug exposure, SRB, mean of three determinations): < 10 nM | GI50 ([5]; Homo sapiens, HOP-62, 48 h drug exposure, SRB, read-out: GI50 HOP 62): < 10 nM | GI50 ([6]; Homo sapiens, A2780, 48 h drug exposure, SRB, read-out: GI50 A 2780): 2 nM | GI50 ([7]; Homo sapiens, COLO 205, 48 h drug exposure, SRB, read-out: GI50 Colo 205): 14700 nM | GI50 ([8]; Homo sapiens, SiHa, 48 h drug exposure, SRB, read-out: GI50 SiHa): 190 nM | GI50 ([9]; Homo sapiens, A549, 48 h drug exposure, SRB, read-out: GI50 A 549): 13000 nM | GI50 ([10]; Homo sapiens, 48 h, 48 h drug exposure, SRB, read-out: GI50 KB): 160 nM
